Laboratory results published in BindingDB's records for PubMed 2841449 (Merck Sharp & Dohme Research Laboratories, 1988).
pKi: −log10 of the molar value.

What was measured:
Beta-arrestin-1 = Beta-arrestin-1 (Oryctolagus cuniculus, UniProt Q95223)
[1] = target: Platelet-activating factor receptor (Homo sapiens, UniProt P25105)
Chain of Platelet-activating factor receptor (P25105 whole entry): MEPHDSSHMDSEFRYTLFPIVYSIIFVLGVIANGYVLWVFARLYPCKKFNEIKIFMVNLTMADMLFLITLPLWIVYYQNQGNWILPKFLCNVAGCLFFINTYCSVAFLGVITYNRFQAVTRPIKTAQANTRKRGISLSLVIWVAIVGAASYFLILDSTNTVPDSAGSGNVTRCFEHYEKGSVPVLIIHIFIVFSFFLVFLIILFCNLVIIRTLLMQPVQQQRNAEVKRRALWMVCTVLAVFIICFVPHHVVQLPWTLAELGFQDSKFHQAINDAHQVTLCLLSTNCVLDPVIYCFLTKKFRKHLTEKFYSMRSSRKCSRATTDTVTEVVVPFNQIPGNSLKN

Chain of Beta-arrestin-1 (Q95223 whole entry): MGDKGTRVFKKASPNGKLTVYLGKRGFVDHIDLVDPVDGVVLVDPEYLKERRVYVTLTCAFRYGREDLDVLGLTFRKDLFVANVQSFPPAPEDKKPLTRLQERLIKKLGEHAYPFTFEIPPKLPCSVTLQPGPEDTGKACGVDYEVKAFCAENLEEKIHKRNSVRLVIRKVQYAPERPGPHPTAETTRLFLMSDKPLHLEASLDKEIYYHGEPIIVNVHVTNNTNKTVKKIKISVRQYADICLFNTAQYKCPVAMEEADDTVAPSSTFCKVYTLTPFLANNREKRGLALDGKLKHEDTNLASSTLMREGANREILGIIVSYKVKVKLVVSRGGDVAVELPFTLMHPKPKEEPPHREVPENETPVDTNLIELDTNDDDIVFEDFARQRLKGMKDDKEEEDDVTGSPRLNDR

Work on `CCCOc1c(OC)cc([C@H]2CC[C@H](c3cc(OC)c(OC)c(OC)c3)O2)cc1S(C)(=O)=O` [L-659,989, (-)] yielded a pKi (Beta-arrestin-1) of 9.29 and a pKi [1] of 8.26.
